Laboratory results published in patent publication US20150216820A1, “QUINONE DERIVATIVES FOR USE IN THE MODULATION OF REDOX STATUS OF INDIVIDUALS” (Edison Pharmaceuticals, Inc., priority 2012, published 2015).
Entries after “also recorded” stand apart in the source; their conditions may differ.

Assays:
[1] = system: children with genetically-confirmed Leigh syndrome; assay: Safety and tolerability in the Leigh syndrome trial; format: in vivo, human
Description: There were three serious adverse events due to intercurrent illness during the three month trial (two cases of bronchitis and one case of salmonellosis, all resolved). […] All recorded values were within the normal range for the clinical laboratories used for the analysis.
All subjects received 100 mg of alpha-tocotrienol quinone three times daily orally or via gastrostomy tube. Total treatment length was three months, with an extension phase for children who completed the initial treatment period. All adverse and serious adverse events were tracked in the trial database. In addition, all held doses due to intolerance of alpha-tocotrienol quinone or any other reason were also recorded.

[2] = system: children with genetically-confirmed Leigh syndrome; assay: Phase 2 single arm subject-controlled trial in children with Leigh syndrome: clinical outcome scales (NPMDS, GMFM, PedsQL, MD-CRS); format: in vivo, human
[3] = system: intracellular (lymphocyte) glutathione; assay: HPLC determination of lymphocyte glutathione forms (GSH, GS-Pro, GSSG) in treated Leigh syndrome patients; format: in vivo, human
Description: The determination of the different forms of GSH obtained from lymphocytes can be performed in a manner similar to the method previously reported by Pastore et al. (Clin. Chem. (Washington, D.C.) 44, 825-832 (1998)). Briefly, 30 μl of 4 M NaBH4, 20 μl of 2 mM EDTA/DTT, 10 μl of 1-octanol and 20 μl of 1.8 M HCl are placed in the derivatization vial containing 30 μl of sample. After the mixture is incubated for three min, 100 μl of 1.5 M N-ethylmorpholine buffer, pH 8.0, 400 μl of distilled water, and 20 μl of 25 mM bromobimane are added. After an additional three-min incubation, 40 μl of acetic acid are added and 20 μl (for free GSH) or 80 μl (for GSSG and GS-Pro) of this mixture are injected into the column. The thiol derivatives are quantified by HPLC (Agilent Technologies 1100 HPLC with a fluorescence detector-excitation at 390 nm and an emission at 478 nm). The analytes are separated for detection using a C18 column (Hypersil ODS; 150×4.6 mm, 3 micron) at 1.5 ml/min using an aqueous phase of aqueous 30 mM ammonium nitrate and 40 mM ammonium formate at pH 3.6 with an increasing acetonitrile gradient. HPLC determinations of the various forms of GSH are carried out on lymphocytes sonicated three times for two sec in 0.1 ml of 0.1 M potassium-phosphate buffer, pH 7.2 using a Model VC 130 Vibra Cell™ ultrasonic processor. For free GSH determinations, 100 μl of 12% sulfosalicylic acid are added to 50 μl of cells lysate, and analytes content on the acid-soluble fraction are determined. The protein pellet is dissolved in 150 μl of 0.1 N NaOH, and protein bound glutathione (GS-Pro) determined. For GSSG determination, cells are sonicated in the presence of 5 mM N-ethylmaleimide (NEM); 100 μl of 12% sulfosalicylic acid are added to 50 μl homogenates, and analytes content on the acid-soluble fraction are determined. Protein concentrations are quantified by BCA-protein assay.
(§1) Intracellular reduced glutathione (GSH) serves as the cell's principal endogenous antioxidant. Leigh syndrome and other mitochondrial diseases are associated with decreased GSH levels as the high level of oxidative stress and free oxygen radicals deplete cellular GSH reserves. In order to verify alpha-tocotrienol quinone mechanism of action and to correlate this action with clinical benefit, intracellular (lymphocyte) glutathione levels were measured in all patients. The ratio of recued-to-oxidized glutathione and reduced glutathione to total glutathione levels were calculated to assess the effect of alpha-tocotrienol quinone on repleting reduced intracellular glutathione. In addition, total serum thiol levels were measured prior to and following initiation of treatment. Plasma creatine levels—an exploratory biomarker for mitochondrial disease—was also obtained.
For lymphocytes and erythrocyte isolation from whole blood, venous blood samples were layered on the top of a discontinuous gradient consisting of 3 ml of Hystopaque®-1119 and 3 mL of Hystopaque®-1077. Gradients were centrifuged at 750 g for 40 min at 4° C. The lymphocyte layer was transferred to a 15 ml centrifuge tube, diluted to a volume of 10 ml with 0.9% NaCl and centrifuged at 750 g for 40 min. The supernatant was removed and, if necessary, the lysis of erythrocytes was performed by adding 2 ml H2O. After 90 s, 2 ml of 1.8% NaCl solution was added and cells washed four times with 0.9% NaCl. The pellet of lymphocytes was centrifuged at 750 g for 10 min and stored at −80° C. until HPLC analysis.
The determination of the different forms of GSH obtained from lymphocytes was performed, with little modification to a method previously reported (Pastore, A., et al. Clin. Chem. (Washington, D.C.) 44, 825-832 (1998)). Briefly, 30 μl of 4 M NaBH4, 20 μl of 2 mM EDTA/DTT, 10 μl of 1-octanol and 20 μl of 1.8 M HCl were placed in the derivatization vial containing 30 μl of sample. […]

[4] = system: Leigh syndrome (SURF1) primary cells; assay: In vitro protection of patient primary cells against glutathione depletion-mediated apoptotic cell death; format: cell-based, human
Description: (§2) The initial clinical dose was selected based on laboratory and human patient pharmacokinetic modeling data. Specifically, a three-compartment model for oral administration was employed that included GI absorption delay, as well as one central and one peripheral compartment. A plasma trough drug concentration was targeted 10-20 fold above the ˜10 nM in vitro EC50 value of alpha-tocotrienol quinone that protected Leigh syndrome (SURF1) primary cells against glutathione depletion-mediated apoptotic cell death. Based on serum values of alpha-tocotrienol quinone obtained in two Leigh syndrome subjects after a single 100 mg dose of alpha-tocotrienol quinone was administered, a clinical dose of 100 mg three times daily was calculated and selected as the initial dose. […] This was consistent with the in vitro target dose and was confirmed in multiple pediatric subjects with inherited mitochondrial disease (Enns, G. M., et al., Mol. Genet. Metab. 105, 91-102 (2012); Blankenberg, F., et al., Ann. Neurol. 70, S148-S148 (2011)). This dose was also safely below the preclinical no observed adverse effect level (NOAEL).

plasma creatine = assay: Plasma creatine levels (exploratory biomarker for mitochondrial disease); format: in vivo, human; settings: p=0.15
Description: as §1

total serum thiol levels = assay: Total thiols in serum/plasma (DTNB, spectrophotometric); format: in vivo, human; settings: three-month time point; p=0.008
Description: as §1
Total thiols were determined in plasma following the method reported by M.-L. Hu (Methods Enzymol. 233, 380-385 (1994)). 50 μl plasma was mixed with 1 ml of the Tris-EDTA buffer and the absorbance at 412 nm was measured. Then, 20 μl of 10 mM DTNB were added. After 15 min incubation at room temperature, the absorption at 412 nm (ε=13,600 cm^−1M^−1) was measured together with a DTNB blank.

[5] = Plasma trough drug concentration in Leigh syndrome subjects; format: in vivo; settings: 100 mg three times daily, eight hours post dosing
Description: as §2

[6] = three months, 100 mg orally three times daily, p=0.01
[7] = LS patients after six-months treatment, n = 10

With `CC(C)=CCC/C(C)=C/CC/C(C)=C/CC[C@@](C)(O)CCC1=C(C)C(=O)C(C)=C(C)C1=O` [alpha-tocotrienol quinone] the “clinical chemistry laboratory parameters incl. liver and kidney function tests and coagulation parameters” value ([1]; three month trial) was “no abnormalities”, the “other reported adverse conditions” value ([1]; three month trial) was “mild sleepiness and hypotonia” and the “serious adverse events due to intercurrent illness” value ([1]; three month trial, two bronchitis, one salmonellosis, all resolved) was “three”. For the same compound, the “drug related adverse events” value ([1]; three months, 100 mg three times daily) was “No drug related adverse events; also recorded: not associated with any drug-induced adverse events”, the clinical disease progression ([2]; all children, three months, regardless of age, genotype, severity) was “arrest of disease progression and reversal” and the “NPMDS score, patient 1, earlier value” ([2]; patient 1, before continued treatment to six months) was 23.5. For the same compound, the “NPMDS score, patient 1, later value” ([2]; patient 1, treated for six months) was 21.1, the “GMFM score, patient 2” value ([2]; patient 2, at six months, increased from 7.6) was 19.8 and the “NPMDS score, patient 2, earlier value” ([2]; patient 2, before continued treatment to six months) was 54. The “change in GMFM score, patient 2” value ([2]; patient 2, following three months of treatment) was “no change”, the “NPMDS score, patient 2, later value” ([2]; patient 2, treated for six months) was 46 and the “NPMDS score, patient 3, earlier value” ([2]; patient 3, before continued treatment to six months) was 27.8. For the same compound, the “NPMDS score, patient 3, later value” ([2]; patient 3, treated for six months) was 25.7, the “change in GMFM score, patient 7” value ([2]; patient 7, score 97.5 prior to treatment (maximum 100)) was “did not change” and the “clinical outcomes (NPMDS, neuromuscular function, health related quality of life, dystonia and spasticity), FIG. 1” value ([2]; prior to vs following three months of treatment) was “significant improvement”. The “average improvement in total NPMDS score from baseline” value ([2]; three months) was 25%, the “NPMDS sections 1-3 (organ system function), mean improvement” value ([2]; three months, 100 mg orally three times daily, p=0.005) was 7.1 and the “GMFM, mean improvement” value [2, 6] was 8.9. The “NPMDS section 4 (quality of life), average improvement” value [2, 6] was 4.6, the “PedsQL Neuromuscular Module, mean improvement” value ([2]; three months, 100 mg orally three times daily, p=0.03) was 14.6 and the “Movement Disorder-Childhood Rating Scale (MD-CRS), improvement in each child” value ([2]; three months, secondary endpoint) was “one class”. For the same compound, the “time to clinical response” value ([2]; universal and durable) was “within eight weeks”, the “GS-Pro, lymphocytes, median” value [3, 7] was 0.57 nmol/mg proteins and the “GSH, lymphocytes, median” value [3, 7] was 28.92 nmol/mg proteins. For the same compound, the “GSSG, lymphocytes, median” value [3, 7] was 1.47 nmol/mg proteins, the “Tot GSH, lymphocytes, median” value [3, 7] was 32.47 nmol/mg proteins and the “overall glutathione charge (GSSG/GSH and GSSG/total glutathione ratios), FIG. 2” value ([3]; all patients, over treatment time) was “rapid normalization”. For the same compound, the “oxidized-to-reduced glutathione levels after treatment” value ([3]; decrease from baseline ratio mean 3.1+/-2.1, p=0.005) was 0.25, the “time to changes in reduced glutathione levels and oxidized-to-reduced glutathione ratios” value ([3]; in most of the patients) was at most 4 weeks and the “time to biochemical response (glutathione charge)” value ([3]; in several subjects, preceding clinical response) was “within two weeks”. The “reduced glutathione in isolated lymphocytes after treatment” value ([3]; increase from 8.5 at baseline, p=0.002) was 25.1 nmol/mg cell protein, the “oxidized glutathione after treatment” value ([3]; reduction, p=0.005) was 0.25 nmol/mg cell protein and the EC50 [4] was about 10 nM. The “plasma creatine, overall average decrease” value (plasma creatine) was 20.2 points, the “total serum thiol levels, mean change” value (total serum thiol levels) was 0.14 and the average trough concentration [5] was about 200 nM.
